Assay results from article doi:10.1101/2022.07.21.500659v1 (bioRxiv, 2022).

Tests used:
Assay type in all cases: in vivo, mouse
OVX BALB/c mice [1] = experiment: Bone strength, 3-point bending of femur in OVX mice; conditions: 8 weeks of treatment
OVX BALB/c mice [2] = experiment: High resolution X-ray microCT of tibia in OVX mice; conditions: 8 weeks, vs OVX+vehicle
OVX BALB/c mice [3] = experiment: Circulating PTH, CTX-I and P1NP in OVX mice; conditions: plasma at necropsy, vs OVX+vehicle
OVX BALB/c mice [4] = conditions: femur midshaft cortical cross-section, FTIRI, vs vehicle-treated OVX mice
OVX BALB/c mice [5] = experiment: Dynamic bone histomorphometry of tibia in OVX mice; conditions: calcein labelling

O=P(O)(O)C(O)(Cn1ccnc1)P(=O)(O)O [zoledronic acid]
Reduced deformation in load-deformation curves of OVX mice (OVX BALB/c mice [1]): not ameliorated
Increase of cortical thickness (OVX BALB/c mice [2]; midshaft tibia): 6%
Increase of trabeculae numbers (OVX BALB/c mice [2]; proximal tibia): 106%
Increase of trabecular bone mass (OVX BALB/c mice [2]; proximal tibia): 85%
Change of circulating levels of P1NP (OVX BALB/c mice [3]): −25%
Reduction of circulating levels of CTX-I (OVX BALB/c mice [3]): 24%
Enhancement of collagen maturity (OVX BALB/c mice [4]): None of these effects were observed
Reduction of the degree of mineralization of the bone ECM (OVX BALB/c mice [4]): None of these effects were observed
Active mineralizing surface (OVX BALB/c mice [5]): reduction
Bone formation rate (OVX BALB/c mice [5]): reduction
